# Assay results taken from publication PMC7016953 (Cells, 2020).
# How the values were obtained:
# [1] = test system: T1, heteromeric TRPC3:TRPC6 channel complexes; test: Fluo-4 Ca2+ influx assay in HEK293 cells co-expressing TRPC3 and TRPC6; format: cell-based; conditions: fluo-4 concentration response analysis
# T1 construct: expressed in transfected cells; host or cells: HEK293, stably co-transfected
# Protocol: All fluorometric Ca^2+ assays were done in (4-(2-hydroxyethyl)-1-piperazineethanesulfonic acid) (HEPES)-buffered saline (HBS), containing 132 mM NaCl, 6 mM KCl, 1 mM MgCl2, 1 mM CaCl2, 5.5 mM D-glucose, 10 mM HEPES, and 0.035% bovine serum albumin (BSA) adjusted to pH 7.4 with NaOH. For measurements in Ca^2+-free bath solutions, a modified HBS without CaCl2 was supplemented with 200 µM ethylene glycol-bis(β-aminoethyl ether)-N,N,N′,N′-tetraacetic acid (EGTA).
# The primary compound screen and the generation of concentration response curves in HEK293 cells or in PC12 cells were performed by using a custom-made fluorescence plate imager built into a robotic liquid handling station equipped with a 96-tip multichannel head (Freedom Evo 150, Tecan, Männedorf, Switzerland) as described previously. To this end, trypsinized cell suspensions were loaded with 4 µM fluo-4/AM (Invitrogen, Thermo Fisher Scientific, Waltham, MA, U.S.A.) in cell culture medium for 30 min at 37 °C. After brief centrifugation, cells were resuspended in HBS and dispensed into black pigmented, clear-bottom 384-well plates (Greiner µClear, Frickenhausen, Germany). Plates were mounted on the imager, and fluorescence signals were recorded with a cooled Zyla 5.5 camera (Andor, Belfast, UK) through a 515 nm long pass filter. The image acquisition was controlled by the µManager software (http://micro-manager.org), and excitation with a LED array (470 nm) was synchronized by the camera trigger output. After baseline recording for about 60 s, the compound libraries or serial dilutions of activators or inhibitors were added to the cells by the liquid handling device. When inhibitory potencies were evaluated, a second pipetting step with the respective reference agonist was performed. Fluorescence intensities were calculated from image stacks for each well with ImageJ (National Institutes of Health, Bethesda, MD, U.S.A.), corrected for background signals, and normalized to the initial intensities (F/F0). […]
# rTRPV2-YFP = test system: T2, rTRPV2-YFP; test: Selectivity profiling, fluo-4 [Ca2+]i response, TRPV2; format: cell-based, rat
# T2 construct: expressed in transfected cells
# Protocol: Human embryonic kidney 293 (HEK293) cells were stably transfected with expression plasmids that encode hTRPC3-YFP, hTRPC6-YFP, hTRPC7-YFP, mTRPC4ß-YFP, rTRPV1-CFP, rTRPV2-YFP, rTRPV3-YFP, mTRPV4-YFP, or hTRPM2 as previously described. Cell lines were cultured in Earle’s minimum essential medium (MEM; Sigma, Munich, Germany), supplemented with 10% fetal calf serum (Gibco Thermo Fisher Scientific, Darmstadt, Germany), 2 mM L-glutamine, and required concentrations of geneticin in a range of 0.4–1 mg/mL. A HEK293mTRPC5-YFP cell line was maintained and induced as described before. […] For electrophysiological and single cell [Ca^2+]i imaging experiments, PC12 cells were plated onto 25 mm poly-L-lysine-coated glass coverslips and measured 24–48 h after seeding. […]
# The primary compound screen and the generation of concentration response curves in HEK293 cells or in PC12 cells were performed by using a custom-made fluorescence plate imager built into a robotic liquid handling station equipped with a 96-tip multichannel head (Freedom Evo 150, Tecan, Männedorf, Switzerland) as described previously. […] Plates were mounted on the imager, and fluorescence signals were recorded with a cooled Zyla 5.5 camera (Andor, Belfast, UK) through a 515 nm long pass filter. […] When inhibitory potencies were evaluated, a second pipetting step with the respective reference agonist was performed. […]
smiles,measurement,setting,value
C[C@@H]1CC[C@H]2[C@@H](C)C(=O)O[C@@H]3O[C@@]4(C)CC[C@@H]1[C@]32OO4 [artemisinin],response of cells stably transfected with both TRPC3 and TRPC6,[1],in a very similar fashion as HEKTRPC3-YFP cells
same,"[Ca2+]i response, TRPV2",rTRPV2-YFP; 100 µM,none of the cell lines responded
same,response of TRPV2-expressing cells to 2-APB after artemisinin,"rTRPV2-YFP; 100 µM artemisinin, 2-APB final concentration 300 µM",slightly increased response
